Experimental data published in patent EP3922633B1, “METHOD FOR EXTRACTING PYRROLIZIDINE ALKALOIDS” (priority 2020, dated 2021).
Read-outs that look alike come from different tables or passages of the source.

Assays:
[1] = Presence or absence of pyrrolizidine alkaloid signals (UPLC-HRMS) in doped lemon, orange and eucalyptus essential oils after hydrodistillation; assay type: physicochemical; settings: for profils UPLC-MS ciblés: presence in huile essentielle avec standards et distillée: huile essentielle de citron, likewise essences d'orange et d'eucalyptus (figure 1, figure 2); for signaux dans la phase organique recueillie après hydrodistillation: huiles essentielles de citron, d'orange et d'eucalyptus dopées jusqu'à 100 ppm, 2 h hydrodistillation, UPLC-HRMS/TOF
Method: (§1) Dans un ballon de 500 mL, on introduit 300 mL d'eau distillée, un barreau magnétique, quelques pierres ponces et une quantité pesée d'échantillon entre 15 et 30 g.
(§2) Le ballon est alors raccordé à un appareil de type Clevenger et placé dans un bain d'huile chauffant.
(§3) On ajoute 10 mL d'eau distillée et 4 à 5 mL de pentane afin de remplir le séparateur.
(§4) On ouvre l'arrivée d'eau pour le réfrigérant et on porte à reflux pendant deux heures.
(§5) On arrête alors le chauffage et on laisse décanter. La phase organique et la phase aqueuse décantent dans le séparateur et sont recueillies.
(§6) […]. Conditions HR-TOF-MS : Les analyses ont été effectuées sur un système Waters XEVO G2 TOF. Conditions de source ESI : tension capillaire : 0,5 kV, tension de cône : 45 V, cône d'extraction : 4 V, température de source : 120 °C, température de désolvatation : 400 °C, débit de gaz : 10 L/h, débit de gaz de désolvatation : 1200 L/h. Les analyses ont été effectuées en mode positif. Le spectromètre de masse a été étalonné avec du formiate de sodium pour une gamme de masse allant de 50 à 1200 Da. La Leucine-Enképhaline (lockmass) est le standard utilisé pour corriger les masses. Les deux masses caractéristiques de la Leucine-Enképhaline ont été vérifiées (278,1141; 556,2771). Les acquisitions ont été réalisées en mode MSE en utilisant l'argon comme gaz de collision. Fragmentation : Le mode MSE permet l'acquisition simultanée de spectres de masse à l'énergie de collision faible et élevée, le premier permettant d'obtenir un ion parent, le dernier de produire des ions fragments.
(§7) Après dilution des extraits d'huile essentielle dans du méthanol, les alcaloïdes pyrrolizidiniques sont chromatographiés par système RP-UPLC, en mode gradient d'élution, détectés et identifiés par spectrométrie de masse et quantifiés par une méthode d'étalonnage externe.
(§8) Dans une fiole jaugée de 20 mL, on pèse exactement 1 g (Pe) de l'échantillon et on ajuste avec du méthanol. La solution est homogénéisée pendant 3 min avec un bain à ultrasons, puis filtrée à l'aide d'une seringue sur un filtre en PTFE de 0,25 µm, puis transférée dans un flacon d'injection.
Afin de démontrer le principe de l'invention, une étude quantitative destinée à montrer la présence ou l'absence d'alcaloïdes pyrrolizidiniques dans des échantillons d'huile essentielle enrichis en alcaloïdes pyrrolizidiniques a été réalisée avant et après hydrodistillation.
Dans cette étude, on a utilisé des alcaloïdes pyrrolizidiniques disponibles commercialement et représentant deux classes précédemment décrites de type II et IV, à savoir : alcaloïde type cyclique (classe la plus représentée) pour la sénécionine, sénécionine-N-oxyde [13268-67-2], rétrorsine, rétrorsine-N-oxyde [15503-86-3], jacobine [3870-67-3], jacobine-N-oxyde [38710-25-7], sénéciphylline, sénéciphylline-N-oxyde [38710-26-8], et alcaloïde type mono-ester pour la lycopsamine [10285-07-1], lycopsamine-N-oxyde [95462-15-0], intermédine [10285-06-0], intermédine-N-oxyde [95462-14-9].
(§9) Trois huiles essentielles de citron, d'orange et d'eucalyptus, dopées jusqu'à 100 ppm de chacun des alcaloïdes pyrrolizidiniques et de leurs oxydes respectifs, ont été hydrodistillées séparément pendant deux heures selon le protocole décrit à l'exemple 1. L'expérimentation est réalisée en duplicat.
(§10) Avant et après hydrodistillation, les phases organique et aqueuse sont séparées et injectées en UPLC-HRMS/TOF.

[2] = Hydrodistillation of lemon essential oil doped with pyrrolizidine alkaloids; alkaloids assayed in distillate and aqueous phase by UPLC-HRMS/TOF; assay type: physicochemical; settings: for φ Aqueuse (résidu de distillation) CT [ppm]: Concentration théorique; for φ Aqueuse (résidu de distillation) C [ppm] / φ Organique (distillat) C [ppm]: after 2 h hydrodistillation; for φ Organique (distillat) C [ppm]: LOQ : 2 ppb
Method: as §1, §2, §3, §4, §5, §6, §7
Des solutions standards d'alcaloïdes pyrrolizidiniques sont préparées comme suit : Dans une fiole jaugée de 100 mL (Vf), on pèse exactement 10 mg (Ms) des substances étalons et on ajuste avec du méthanol. Les solutions sont homogénéisées avec un bain à ultrasons pendant 3 min.
La concentration de la solution standard est donnée par l'équation suivante : C (mg/mL) = (Ms×Pu)/(100×Vf) [formula] • Ms = Poids de la substance standard • Pu = Pureté de la substance étalon en pourcentage
Ensuite, cette solution mère est diluée jusqu'à obtenir les concentrations appropriées pour la sensibilité du détecteur.
as §8
Si nécessaire, cette solution doit être successivement diluée pour tomber dans une plage de linéarité appropriée du détecteur.
as §9, §10

rat = settings: cited from earlier work
[3] = Tableau 3, Huile essentielle de Citron dopée, (duplicate 2)
[4] = Tableau 3, Huile essentielle de Citron dopée, duplicate 1
[5] = Tableau 4, Huile essentielle de Citron dopée (as titled), (duplicate 2)
[6] = Tableau 4, Huile essentielle de Citron dopée (as titled), duplicate 1
[7] = administrés régulièrement par voie orale

C/C=C1\C[C@@H](C)[C@](O)(CO)C(=O)OCC2=CCN3CC[C@@H](OC1=O)[C@@H]23 [Rétrorsine]
profils UPLC-MS ciblés: presence in huile essentielle avec standards et distillée [1]: absentes | signaux dans la phase organique recueillie après hydrodistillation [1]: absence des signaux | φ Aqueuse (résidu de distillation) CT [ppm] [2, 3]: 0,868 ppm | φ Aqueuse (résidu de distillation) CT [ppm] [2, 4]: 0,806 ppm | φ Aqueuse (résidu de distillation) C [ppm] [2, 3]: 0,839 ppm | φ Organique (distillat) C [ppm] [2, 3]: < LoQ | φ Aqueuse (résidu de distillation) C [ppm] [2, 4]: 0,810 ppm | φ Organique (distillat) C [ppm] [2, 4]: < LoQ | φ Aqueuse (résidu de distillation) CT [ppm] [2, 5]: 0.828 ppm | φ Aqueuse (résidu de distillation) CT [ppm] [2, 6]: 0.797 ppm | φ Aqueuse (résidu de distillation) C [ppm] [2, 5]: 0.711 ppm | φ Organique (distillat) C [ppm] [2, 5]: < LoQ | φ Aqueuse (résidu de distillation) C [ppm] [2, 6]: 0.663 ppm | φ Organique (distillat) C [ppm] [2, 6]: < LoQ | tumeurs hépatiques (rat; [7]): provoquer des tumeurs hépatiques

CC(C)[C@@](O)(C(=O)OCC1=CC[N+]2([O-])CC[C@@H](O)[C@@H]12)[C@@H](C)O (stereo partly drawn) [intermédine-N-oxyde]
signaux dans la phase organique recueillie après hydrodistillation [1]: absence des signaux

C/C=C1/C[C@@H](C)[C@@](C)(O)C(=O)OCC2=CC[N+]3([O-])CC[C@@H](OC1=O)[C@@H]23 (stereo partly drawn) [sénécionine-N-oxyde]
signaux dans la phase organique recueillie après hydrodistillation [1]: absence des signaux

C/C=C(\C)C(=O)O[C@@H]1CCN2CC=C(COC(=O)[C@](O)(C(C)C)[C@H](C)O)[C@H]12 [symphytine]
tumeurs hépatiques (rat; [7]): provoquer des tumeurs hépatiques

CC(C)[C@@](O)(C(=O)OCC1=CC[N+]2([O-])CC[C@@H](O)[C@@H]12)[C@H](C)O (stereo partly drawn) [Lycopsamine-N-oxyde]
signaux dans la phase organique recueillie après hydrodistillation [1]: absence des signaux | φ Aqueuse (résidu de distillation) CT [ppm] [2, 5]: 0.030 ppm | φ Aqueuse (résidu de distillation) CT [ppm] [2, 6]: 0.028 ppm | φ Aqueuse (résidu de distillation) C [ppm] [2, 5]: 0.027 ppm | φ Organique (distillat) C [ppm] [2, 5]: < LoQ | φ Aqueuse (résidu de distillation) C [ppm] [2, 6]: 0.024 ppm | φ Organique (distillat) C [ppm] [2, 6]: < LoQ

C/C=C1/C[C@@H](C)[C@@](C)(O)C(=O)OCC2=CCN3CC[C@@H](OC1=O)[C@@H]23 [sénécionine]
signaux dans la phase organique recueillie après hydrodistillation [1]: absence des signaux

C/C=C1/C[C@@H](C)[C@@](C)(O)C(=O)OC/C2=C/CN(C)CC[C@@H](OC1=O)C2=O [senkirkine]
tumeurs hépatiques (rat; [7]): provoquer des tumeurs hépatiques

C=C1C/C(=C/C)C(=O)O[C@@H]2CCN3CC=C(COC(=O)[C@]1(C)O)[C@H]23 [séneciphylline, sénéciphylline]
signaux dans la phase organique recueillie après hydrodistillation [1]: absence des signaux

C[C@H]1C(=O)O[C@@H]2CCN3CC=C(COC(=O)[C@](C)(O)[C@]1(C)O)[C@H]23 [monocrotaline]
tumeurs hépatiques (rat; in vivo): provoquer des tumeurs hépatiques

C=C1C/C(=C/C)C(=O)O[C@@H]2CC[N+]3([O-])CC=C(COC(=O)[C@]1(C)O)[C@H]23 (stereo partly drawn) [séneciphylline-N-oxyde, sénéciphylline-N-oxyde]
signaux dans la phase organique recueillie après hydrodistillation [1]: absence des signaux

C[C@@H]1C[C@@]2(O[C@H]2C)C(=O)O[C@@H]2CCN3CC=C(COC(=O)[C@]1(C)O)[C@H]23 [jacobine]
signaux dans la phase organique recueillie après hydrodistillation [1]: absence des signaux

CC(C)[C@](O)(C(=O)OCC1=CCN2CC[C@@H](O)[C@@H]12)[C@@H](C)O (stereo in doubt) [Lycopsamine]
profils UPLC-MS ciblés: presence in huile essentielle avec standards et distillée [1]: absentes | signaux dans la phase organique recueillie après hydrodistillation [1]: absence des signaux | φ Aqueuse (résidu de distillation) CT [ppm] [2, 3]: 0,626 ppm | φ Aqueuse (résidu de distillation) CT [ppm] [2, 4]: 0,656 ppm | φ Aqueuse (résidu de distillation) C [ppm] [2, 3]: 0,698 ppm | φ Organique (distillat) C [ppm] [2, 3]: < LoQ | φ Aqueuse (résidu de distillation) C [ppm] [2, 4]: 0,678 ppm | φ Organique (distillat) C [ppm] [2, 4]: < LoQ | φ Aqueuse (résidu de distillation) CT [ppm] [2, 5]: 0.597 ppm | φ Aqueuse (résidu de distillation) CT [ppm] [2, 6]: 0.550 ppm | φ Aqueuse (résidu de distillation) C [ppm] [2, 5]: 0.621 ppm | φ Organique (distillat) C [ppm] [2, 5]: < LoQ | φ Aqueuse (résidu de distillation) C [ppm] [2, 6]: 0.588 ppm | φ Organique (distillat) C [ppm] [2, 6]: < LoQ

C[C@@H]1C[C@@]2(O[C@H]2C)C(=O)O[C@@H]2CC[N+]3([O-])CC=C(COC(=O)[C@]1(C)O)[C@H]23 (stereo partly drawn) [jacobine-N-oxyde]
signaux dans la phase organique recueillie après hydrodistillation [1]: absence des signaux

C/C=C1/C[C@@H](C)[C@](O)(CO)C(=O)OCC2=CC[N@@+]3([O-])CC[C@@H](OC1=O)[C@@H]23 [Rétrorsine-N-oxyde]
profils UPLC-MS ciblés: presence in huile essentielle avec standards et distillée [1]: absentes | signaux dans la phase organique recueillie après hydrodistillation [1]: absence des signaux | φ Aqueuse (résidu de distillation) CT [ppm] [2, 3]: 0,621 ppm | φ Aqueuse (résidu de distillation) CT [ppm] [2, 4]: 0,662 ppm | φ Aqueuse (résidu de distillation) C [ppm] [2, 3]: 0,605 ppm | φ Organique (distillat) C [ppm] [2, 3]: < LoQ | φ Aqueuse (résidu de distillation) C [ppm] [2, 4]: 0,691 ppm | φ Organique (distillat) C [ppm] [2, 4]: < LoQ | φ Aqueuse (résidu de distillation) CT [ppm] [2, 5]: 0.593 ppm | φ Aqueuse (résidu de distillation) CT [ppm] [2, 6]: 0.457 ppm | φ Aqueuse (résidu de distillation) C [ppm] [2, 5]: 0.612 ppm | φ Organique (distillat) C [ppm] [2, 5]: < LoQ | φ Aqueuse (résidu de distillation) C [ppm] [2, 6]: 0.678 ppm | φ Organique (distillat) C [ppm] [2, 6]: < LoQ
